{"source": "patent US5212165A", "about": "“Method for rehabilitating the vasorelaxant action of the coronary arteries impaired through atherosclerosis or hypercholesterolemia employing an ACE inhibitor” (E. R. Squibb & Sons, Inc., priority 1989, dated 1993)", "key": {"[1]": {"test_system": "K^+ depolarized arteries (iliac rings)", "experiment": "Contractile responses to CaCl2 in K^+ depolarized iliac rings from cynomolgus monkeys", "parameters": "species or system cynomolgus (Macaca fascicularis) monkeys", "conditions": "Mean ± SEM", "source_text": "(§1) Twenty-four male cynomolgus (Macaca fascicularis) monkeys were divided into four groups of six animals each. During the course of the study, one of the control monkeys was sacrificed due to ill health unrelated to the study. Each group was fed a different diet for six months. The control group ate a normal diet of monkey biscuit. The cholesterol group ate a specially formulated monkey diet containing cholesterol. The cholesterol +low captopril group ate the cholesterol diet supplemented with captopril (50 mg/kg divided into two daily doses). The cholesterol+high captopril group ate the cholesterol diet and a higher total dose of captopril (100 mg/kg divided into two daily doses).\n(§2) The monkeys were sedated with an intramuscular injection of ketamine (10 mg/kg), then anesthetized with pentobarbital (25 mg/kg). The iliac arteries were carefully dissected, cleaned of surrounding connective tissue, and refrigerated overnight for use the following day.\n(§3) On the day of the experiment, three iliac rings (3 mm wide) from each animal were cut and mounted for isometric force recording. Each ring was attached to a micrometer for the control of muscle length and to a Grass FT.03 force transducer and Grass 7D recorder. The rings were placed in warm (37° C.), oxygenated, physiological salt solution (PSS) of the following composition (in mM): 140.0 NaCl, 4.7 KCl, 1.2 MgSO4, 1.6 CaCl2, 1.2 NaH2 PO4, 5.6 D-glucose, 2.0 2-(N-morpholino)propanesulfonic acid (MOPS, pH 7.4 at 37° C.), and 0.02 Na2 -ethylenediaminetetraacetic acid (EDTA). The rings were stretched to a preload of 5 g during a 2 hour equilibration period, then stimulated with 1 μM phenylephrine to test for viability and relaxed with 100 nM acetylcholine to test for endothelial function. Stock solutions of phenylphrine, acetylcholine, propranolol, and sodium nitroprusside were prepared daily in water; nifedipine stock solutions were prepared daily in ethanol.\n(§4) The voltage-dependent calcium channels were studied in one ring from each monkey. The protocol consisted of depleting the cells of calcium by exposing the rings to a Ca-free, EGTA (ethylene glycol-bis(β-aminoethyl ether)N,N,N',N'-tetraacetic acid) PSS (omission of CaCl2 and addition of 0.1 mM EGTA) for 30 minutes. The EGTA was subsequently removed from the tissues with three washes of Ca-free PSS (simple omission of CaCl2). Following that, the rings were bathed in Ca-free, K^+ PSS (omission of CaCl2 and isoosmotic substitution of KCl for NaCl such that the KCl concentration was 110 mM) for 30 minutes. A CaCl2 concentration-response curve was obtained by replacing the bath solution with K^+ PSS containing incremental increases in CaCl2 concentration (0.1, 0.3, 0.5, 1.0, 1.25, 1.6, and 2.5 mM). The maximal contractions, in response to 2.5 mM CaCl2, were then relaxed incrementally with nifedipine. Another iliac ring (fade control) from each monkey was subjected to the same protocol with the exception that the strips were allowed to remain contracted and the nifedipine concentration-response curve was not obtained. Some fade of the CaCl2 -induced force was observed over the time period required for the nifedipine concentration-response curve. This fade was accounted for by decreasing the amount of relaxation observed upon addition of nifedipine by the amount of fade observed in the time control from the same monkey.\n(§5) Data are presented as mean±SEM. The IC50 and EC50 values were estimated by linearly interpolating from the concentration-response curves. The EC50 values for each ring were used to determine the means for each treatment group.\nConcentration-response curves to CaCl2 in K^+ depolarized rings were obtained following depletion of tissue calcium by repeated washing in Ca-free PSS first with, then without, EGTA. There were no differences in the responses to CaCl2 among any of the treatment groups (Table 1)."}, "[2]": {"test_system": "vascular relaxation in response to EN-D (ACh) and EN-I (Na nitroprusside) agonists", "conditions": "rats, cited from earlier work; for vascular relaxations in response to EN-D (ACh) and EN-I (Na nitroprusside) agonists: oral"}, "[3]": {"test_system": "isolated aorta from hypertensive rats", "conditions": "cited from earlier work"}, "[4]": {"test_system": "delayed cerebral arteriospasm", "conditions": "cited from earlier work"}, "[5]": {"test_system": "phenylephrine-contracted isolated iliac arteries", "experiment": "Acetylcholine-induced relaxation of phenylephrine-contracted isolated iliac arteries from cynomolgus monkeys", "parameters": "species or system cynomolgus (Macaca fascicularis) monkeys", "conditions": "for EC50: Macaca fascicularis, non-responder excluded, Mean ± SEM; for maximum force generated in response to phenylephrine (before acetylcholine): non-responders excluded, mean±SEM", "source_text": "as §1, §2, §3\n(§6) Alpha-adrenoceptor and endothelial cell function were examined in the third ring from each monkey. In the presence of 0.1 μM propranolol, a cumulative concentration-response curve to phenylephrine was obtained, then the phenylephrine was washed out of the baths and the rings were allowed to relax completely. The rings were subsequently contracted with an EC50 concentration of phenylephrine (1 μM) and, following stabilization of the contraction, the rings were treated with increasing concentrations of acetylcholine, followed by 100 nM sodium nitroprusside.\nas §5\nFor each monkey, the EC50 for acetylcholine relaxation was calculated by linearly interpolating from the concentration-response curves. When 50% relaxation was not achieved, the value of the EC50 was set to 30 μM a value larger than any of the experimental concentrations of acetylcholine).\nLinear contrast of mean ranks in the groups were constructed with a variance estimate for the contrast based on the Kruskal-Wallis statistic (Dunn 1964).\nIn the analyses, the following coefficients were employed: i) for an overall test, the coefficients were 3 for the cholesterol group, 1 for the control group, -1 for the cholesterol+low captopril group, and -3 for the cholesterol+high captopril group, based on prior expectations of likely results; ii) for a test of the cholesterol effect, the coefficients were 1 for the cholesterol group, -1 for the control group, 0 for the cholestrol+low captopril group, and 0 for the cholesterol+high captopril group; iii) for a test of the captopril effect, the coefficients were 0 for the cholesterol group, 1 for the […], 0 for the cholesterol+low captopril group, and -1 for the cholesterol+high captopril group.\nAll statistical results reported are based on one-sided tests. […]"}, "angina patients": {"test_system": "angina patients", "conditions": "12 angina patients; Thuermann et al; cited from earlier work"}, "[6]": {"test_system": "voltage-dependent calcium channels (iliac rings)", "experiment": "Relaxation responses to nifedipine of CaCl2-contracted iliac rings from cynomolgus monkeys", "parameters": "species or system cynomolgus (Macaca fascicularis) monkeys", "conditions": "Macaca fascicularis, contracted with 2.5 mM CaCl2 in K^+ PSS, mean±SEM", "source_text": "as §1, §2, §3, §4\nData are presented as mean±SEM. The IC50 and EC50 values were estimated by linearly interpolating from the concentration-response curves. […]"}, "[7]": {"test_system": "alpha-adrenoceptor (isolated iliac arteries)", "experiment": "Contractile responses to phenylephrine of isolated iliac arteries from cynomolgus monkeys", "parameters": "species or system cynomolgus (Macaca fascicularis) monkeys", "conditions": "Mean ± SEM; for EC50: Macaca fascicularis, read-out: EC50 (phenylephrine-induced contraction)", "source_text": "as §1, §2, §3, §6, §5\nPhenylephrine concentration-response curves were obtained in iliac rings from all groups of monkeys."}, "isolated rat hearts": {"test_system": "isolated rat hearts", "conditions": "interaction with ARG-I, ARG-II and BK; Schoelkens et al; cited from earlier work"}, "[8]": {"test_system": "delayed cerebral vasospasm of the basilar artery and its branches", "conditions": "by injection; Gavras et al; cited from earlier work"}, "[9]": {"test_system": "acute cerebral arteriospasm", "conditions": "after subarachnoid hemorrhage, dog, angiographic; cited from earlier work"}, "[10]": {"test_system": "rabbit or human platelets", "conditions": "in vitro; cited from earlier work"}, "guinea pig or rat lungs": {"test_system": "guinea pig or rat lungs", "conditions": "infusion through guinea pig or rat lungs; cited from earlier work"}, "rat stomach": {"test_system": "rat stomach", "conditions": "in vitro; cited from earlier work"}, "rabbit veins": {"test_system": "rabbit veins", "conditions": "in vitro; cited from earlier work"}, "rat mesenteric veins": {"test_system": "rat mesenteric veins", "conditions": "cited from earlier work"}}, "note": "Read-outs that look alike come from different tables or passages of the source. No end group written: not given here.", "data": [{"molecule": "[Ca+2].[Cl-].[Cl-]", "note": "[CaCl2]", "values": [{"measurement": "EC50", "setting": "[1]; Cholesterol group", "value": "200000 ± 30000", "unit": "nM"}, {"measurement": "Max Force (CaCl2)", "setting": "[1]; Cholesterol group", "value": "18.2 ± 1.6", "unit": "g"}, {"measurement": "EC50", "setting": "[1]; Control group", "value": "140000 ± 10000", "unit": "nM"}, {"measurement": "Max Force (CaCl2)", "setting": "[1]; Control group", "value": "18.5 ± 1.1", "unit": "g"}]}, {"molecule": "COc1ccc2c(c1)c(CC(=O)O)c(C)n2C(=O)c1ccc(Cl)cc1", "note": "[Indomethacin]", "values": [{"measurement": "effect on ACh-induced relaxation", "setting": "[2]", "value": "did not prevent the effect of ACh"}, {"measurement": "effect on relaxation responses", "setting": "[3]; isolated aorta, hypertensive and normotensive rats", "value": "unaffected"}]}, {"molecule": "C[C@H](N[C@@H](CCc1ccccc1)C(=O)O)C(=O)N1CCC[C@H]1C(=O)O", "note": "[MK-422]", "values": [{"measurement": "restoring arterial width in delayed cerebral arteriospasm", "setting": "[4]; four dogs, injectable form, unpublished data, preliminary", "value": "at least as effective as teprotide"}]}, {"molecule": "CC(=O)OCC[N+](C)(C)C", "note": "[acetylcholine]", "values": [{"measurement": "EC50", "setting": "[5]; Cholesterol group, N 5, EC50 set at 30 μM if <50% relaxation", "value": "16200 ± 7200", "unit": "nM"}, {"measurement": "EC50", "setting": "[5]; Control group, N 4", "value": "300 ± 100", "unit": "nM"}]}, {"molecule": "CCOC(=O)C(CCc1ccccc1)N[C@@H](C)C(=O)N1CCC[C@H]1C(=O)O", "note": "(stereo partly drawn) [enalapril, N-(1-ethoxycarbonyl-3-phenylpropyl)-L-alanyl-L-proline]", "values": [{"measurement": "anti-ischemic effect", "setting": "angina patients", "value": "shown to have an anti-ischemic effect"}, {"measurement": "vascular relaxations in response to EN-D (ACh) and EN-I (Na nitroprusside) agonists", "setting": "[2]", "value": "differentially affected vascular relaxations"}, {"measurement": "normalization of relaxation responses and prevention of hypertension", "setting": "[3]; P.o., salt-induced hypertension, rat", "value": "ineffective"}]}, {"molecule": "NNc1nncc2ccccc12", "note": "[hydralazine]", "values": [{"measurement": "vascular relaxations in response to EN-D (ACh) and EN-I (Na nitroprusside) agonists", "setting": "[2]", "value": "differentially affected vascular relaxations"}]}, {"molecule": "COC(=O)C1=C(C)NC(C)=C(C(=O)OC)C1c1ccccc1[N+](=O)[O-]", "note": "[nifedipine]", "values": [{"measurement": "IC50", "setting": "[6]; cholesterol group", "value": "22.8 ± 5.6", "unit": "nM"}, {"measurement": "IC50", "setting": "[6]; cholesterol+high captopril group", "value": "11.5 ± 1.8", "unit": "nM"}, {"measurement": "IC50", "setting": "[6]; cholesterol+low captopril group", "value": "18.8 ± 6.6", "unit": "nM"}, {"measurement": "IC50", "setting": "[6]; control group", "value": "11.4 ± 2.3", "unit": "nM"}]}, {"molecule": "CNC[C@H](O)c1cccc(O)c1", "note": "[phenylephrine]", "values": [{"measurement": "Max Force (phenylephrine-induced contraction)", "setting": "[7]; Cholesterol group", "value": "17.3 ± 3.3", "unit": "g"}, {"measurement": "Max Force (phenylephrine-induced contraction)", "setting": "[7]; Control group", "value": "22.5 ± 1.6", "unit": "g"}, {"measurement": "EC50", "setting": "[7]; Cholesterol group", "value": "1200 ± 300", "unit": "nM"}, {"measurement": "EC50", "setting": "[7]; Control group", "value": "800 ± 100", "unit": "nM"}, {"measurement": "maximum force generated in response to phenylephrine (before acetylcholine)", "setting": "[5]; cholesterol group", "value": "11.0 ± 2.6", "unit": "g"}, {"measurement": "maximum force generated in response to phenylephrine (before acetylcholine)", "setting": "[5]; control group", "value": "14.3 ± 1.4", "unit": "g"}]}, {"molecule": "Oc1cccc(O)c1O", "note": "[pyrogallol]", "values": [{"measurement": "effect on ACh-induced relaxation", "setting": "[2]", "value": "did inhibit ACh-induced relaxations"}]}, {"molecule": "CCOC(=O)[C@H](CCc1ccccc1)N[C@@H](C)C(=O)N1[C@H](C(=O)O)C[C@@H]2CCC[C@@H]21", "note": "[ramipril]", "values": [{"measurement": "local cardioprotective actions", "setting": "isolated rat hearts", "value": "BK is involved in the local cardioprotective actions of RP"}]}, {"molecule": "CC[C@H](C)[C@H](NC(=O)[C@H](CCC(N)=O)NC(=O)[C@@H]1CCCN1C(=O)[C@H](CCCNC(=N)N)NC(=O)[C@@H]1CCCN1C(=O)[C@H](Cc1c[nH]c2ccccc12)NC(=O)[C@@H]1CCC(=O)N1)C(=O)N1CCC[C@H]1C(=O)N1CCC[C@H]1C(=O)O", "note": "[teprotide]", "values": [{"measurement": "release of delayed cerebral vasospasm", "setting": "[8]", "value": "partial or total release"}, {"measurement": "effect on acute cerebral arteriospasm", "setting": "[9]", "value": "effective"}, {"measurement": "effect on delayed established cerebral arteriospasm", "setting": "[4]; dog, in vivo", "value": "could reverse that spasm as well"}]}, {"molecule": "endothelin: endothelin (EL) (CSCSSLMDKECVYFCHLDIIW; ends and bridges not checked; cysteine pairing not given here; UniProt P05305 53-73, looked up)", "values": [{"measurement": "platelet aggregation", "setting": "[10]", "value": "did not aggregate rabbit or human platelets or prevent their aggregation"}, {"measurement": "release of PG12 and TXA2", "setting": "guinea pig or rat lungs", "value": "release PG12 and TXA2"}, {"measurement": "contraction of rat stomach", "setting": "rat stomach", "value": "contracted rabbit veins and rat stomach"}, {"measurement": "contraction of rabbit veins", "setting": "rabbit veins", "value": "contracted rabbit veins"}, {"measurement": "vasoconstriction", "setting": "rat mesenteric veins; at higher doses", "value": "vasoconstriction"}, {"measurement": "dilatation of rat mesenteric veins", "setting": "rat mesenteric veins; via EDRF release", "value": "dilated rat mesenteric veins"}]}]}
